In PMC9865188 (Pharmaceutics, 2023):
Read-outs that look alike come from different tables or passages of the source.

Tests used:
[1] = Pharmacokinetic study in Sprague Dawley rats (oral gavage); type: in vivo; details: for concentration at 15 min / Cmax / AUC(0-t) / bioavailability / half-life: male, rat, plasma; for concentration at 15 min / Cmax: Sprague Dawley; for concentration at 15 min: oral, Etoposide C15min; for Cmax / AUC(0-t) / bioavailability / half-life: po; for Cmax: Etoposide Cmax; for AUC(0-t) / bioavailability / half-life: Sprague-Dawley; for AUC(0-t): Etoposide AUC0–6h; for bioavailability: Etoposide bioavailability; for half-life: Etoposide t½
Method: The study was conducted according to the European Convention for the Protection of Vertebrate Animals used for Experimental and other Scientific Purposes (ETS no. 123) and Belgian law controlling the experiments on animals (Royal Decree of 29 May 2013 for the protection of laboratory animals). Animals were allowed minimum five days to acclimatise upon arrival from the supplier, and they were housed in polysulphone cages (58 × 52 × 20 cm) in groups of six provided with wooden sticks for enrichment. Animals had free access to Safe 04 Maintenance Diet (Safe, Rosenberg, Germany) and water during acclimatisation and during the study.
Male Sprague Dawley rats (Charles River, Dortmund, Germany) weighing 293–358 g were randomly assigned into six groups of six animals. Formulations were prepared as clear solutions in 40% v/v ethanol–water and 10 mL/kg was administered to each animal by oral gavage. […] Plasma samples were taken by tail vein puncture with a needle followed by collection in 32–64 µL micro haematocrit tubes (Vitrex Medical, Herlev, Denmark) at times 15, 30, and 45 min and 1, 2, 3, 4, and 6 h. Samples were centrifuged, and plasma was transferred into 10 µL end-to-end pipettes (Vitrex Medical, Herlev, Denmark) and immediately frozen at −80 °C until bioanalysis. Immediately after the study, animals were euthanised according to the principles of euthanasia stated in the AVMA Guidelines for the Euthanasia of Animals (American Veterinary Medical Association, 2020). Plasma samples were analysed by a previously described qualified LC-MS/MS method.
Pharmacokinetic parameters were calculated individually for each animal subject and pooled for statistical analysis. The plasma concentration at 15 min (C15min) was reported as an average of the plasma concentration of the six animals in each group. […] Elimination rate constants (ke) were calculated by linear regression of the linear part of the ln(plasma concentration) versus time profiles, and plasma half-life (t½) was calculated from ke:(3) t½=ln (2)/ke

P-gp = P-gp (Homo sapiens, UniProt P08183); test: Transcellular etoposide permeability across Caco-2 cell monolayers; details: Caco-2, spike method, 2.5 nM zosuquidar vs 2.5 nM zosuquidar + 0.2 µM polysorbate 20
Method: All were carried out in four independent cell passages. Transcellular permeability studies were performed in HEPES HBSS pH 7.4 and were assessed in the basolateral (B) to apical (A) and A–B direction for series (1) and (3) and in the B–A direction for series (2). […] Test solutions were either prepared by conventional serial dilution for series (1)–(2) or by a spike method for series (3).
Before the transport experiment, growth medium was removed from the cells by vacuum suction (Vacusip, Integra Biosciences, NH, USA), followed by a 10 min equilibration in HEPES HBSS pH 7.4 on a Talboys 1000 MP incubating microplate shaker (Troemner, NJ, USA, 220 rpm, 37 °C). Then, the buffer was removed, and donor and acceptor solutions were added, with a total of 500 and 1000 µL to the A and B compartment, respectively. […] At 120 min, a sample was taken from the donor compartment and diluted in mobile phase. Samples were analysed by HPLC-FL, and for series (2) and (3), 50 µL sample was transferred to a black, clear-bottom 96-well plate for lucifer yellow quantification.
Papp was calculated by dividing the flux with the measured donor concentration.

[2] = cited from earlier work
[3] = group B: etoposide 20 mg/kg + zosuquidar 0.63 mg/kg + 1.0% v/v polysorbate 20 oral
[4] = group D: etoposide 20 mg/kg + zosuquidar 2.0 mg/kg + 5.0% v/v polysorbate 20 oral
[5] = group E: etoposide 20 mg/kg + zosuquidar 6.3 mg/kg + 5.0% v/v polysorbate 20 oral
[6] = group F: etoposide 20 mg/kg + zosuquidar 6.3 mg/kg + 10% v/v polysorbate 20 oral
[7] = 20 mg/kg, group A: etoposide 20 mg/kg + 1.0% v/v polysorbate 20 oral
[8] = 20 mg/kg, group C: etoposide 20 mg/kg + 5.0% v/v polysorbate 20 oral
[9] = 20 mg/kg, group B: etoposide 20 mg/kg + zosuquidar 0.63 mg/kg + 1.0% v/v polysorbate 20 oral
[10] = 20 mg/kg, group D: etoposide 20 mg/kg + zosuquidar 2.0 mg/kg + 5.0% v/v polysorbate 20 oral
[11] = 20 mg/kg, group E: etoposide 20 mg/kg + zosuquidar 6.3 mg/kg + 5.0% v/v polysorbate 20 oral
[12] = 20 mg/kg, group F: etoposide 20 mg/kg + zosuquidar 6.3 mg/kg + 10% v/v polysorbate 20 oral
[13] = group D*: etoposide 20 mg/kg oral alone
[14] = group F*: etoposide 20 mg/kg + zosuquidar 0.63 mg/kg oral
[15] = group G*: etoposide 20 mg/kg + zosuquidar 2.0 mg/kg oral
[16] = group H*: etoposide 20 mg/kg + zosuquidar 6.3 mg/kg oral

Chain of P-gp (P08183 whole entry): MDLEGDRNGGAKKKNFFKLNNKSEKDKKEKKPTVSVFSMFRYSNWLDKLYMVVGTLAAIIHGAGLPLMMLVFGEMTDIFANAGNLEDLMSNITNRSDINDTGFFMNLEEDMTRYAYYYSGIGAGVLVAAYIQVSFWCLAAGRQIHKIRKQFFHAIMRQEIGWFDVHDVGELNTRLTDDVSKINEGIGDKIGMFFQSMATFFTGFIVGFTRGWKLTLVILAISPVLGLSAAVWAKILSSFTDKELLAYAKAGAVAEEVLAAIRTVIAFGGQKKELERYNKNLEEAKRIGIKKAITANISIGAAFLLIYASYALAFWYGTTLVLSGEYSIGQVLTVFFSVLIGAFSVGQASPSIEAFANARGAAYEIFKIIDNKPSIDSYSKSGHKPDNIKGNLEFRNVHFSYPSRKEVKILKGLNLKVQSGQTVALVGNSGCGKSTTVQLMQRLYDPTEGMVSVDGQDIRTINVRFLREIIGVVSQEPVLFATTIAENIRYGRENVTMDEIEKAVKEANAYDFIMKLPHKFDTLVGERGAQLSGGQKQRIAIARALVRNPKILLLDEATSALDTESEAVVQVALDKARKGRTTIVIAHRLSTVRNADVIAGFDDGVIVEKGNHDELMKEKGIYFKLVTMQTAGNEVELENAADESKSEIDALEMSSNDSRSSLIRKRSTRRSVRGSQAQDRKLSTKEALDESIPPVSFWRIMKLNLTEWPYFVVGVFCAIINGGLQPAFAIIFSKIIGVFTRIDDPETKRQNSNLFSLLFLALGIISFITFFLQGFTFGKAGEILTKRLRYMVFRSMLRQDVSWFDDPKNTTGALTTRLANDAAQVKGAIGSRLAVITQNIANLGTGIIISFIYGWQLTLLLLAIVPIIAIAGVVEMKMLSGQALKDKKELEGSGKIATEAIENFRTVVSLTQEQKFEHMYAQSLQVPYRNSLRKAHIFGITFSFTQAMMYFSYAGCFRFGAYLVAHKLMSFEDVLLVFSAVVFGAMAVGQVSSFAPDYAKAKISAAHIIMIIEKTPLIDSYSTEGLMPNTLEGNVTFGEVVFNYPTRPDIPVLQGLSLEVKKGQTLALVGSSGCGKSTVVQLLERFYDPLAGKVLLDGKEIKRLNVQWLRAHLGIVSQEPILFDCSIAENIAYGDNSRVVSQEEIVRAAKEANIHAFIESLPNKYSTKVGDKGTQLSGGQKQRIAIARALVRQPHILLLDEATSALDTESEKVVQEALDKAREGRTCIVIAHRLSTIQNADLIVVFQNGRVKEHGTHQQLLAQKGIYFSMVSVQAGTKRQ

## COc1cc([C@@H]2c3cc4c(cc3[C@@H](O[C@@H]3O[C@@H]5CO[C@@H](C)O[C@H]5[C@H](O)[C@H]3O)[C@H]3COC(=O)[C@H]23)OCO4)cc(OC)c1O [etoposide]
[1]; group A: etoposide 20 mg/kg + 1.0% v/v polysorbate 20 oral
  Etoposide tmax, median [Q1; Q3]: 30 [30;34] min
[1]; [3]
  Etoposide tmax, median [Q1; Q3]: 45 [30;49] min
  concentration at 15 min: 1140 ± 120 ng/mL
[1]; group C: etoposide 20 mg/kg + 5.0% v/v polysorbate 20 oral
  Etoposide tmax, median [Q1; Q3]: 30 [26;30] min
[1]; [4]
  Etoposide tmax, median [Q1; Q3]: 38 [30;60] min
  concentration at 15 min: 1010 ± 100 ng/mL
[1]; [5]
  Etoposide tmax, median [Q1; Q3]: 45 [41;49] min
  concentration at 15 min: 923 ± 103 ng/mL
[1]; [6]
  Etoposide tmax, median [Q1; Q3]: 45 [41;60] min
  Etoposide t½: 56.4 ± 2.2 min
  concentration at 15 min: 579 ± 52 ng/mL
[1]; [7]
  concentration at 15 min: 404 ± 58 ng/mL
  Cmax: 711 ± 86 ng/mL
  AUC(0-t): 921 ± 84 ng·h/mL
  bioavailability: 5.35 ± 0.49%
  half-life: 42.4 ± 2.4 min
[1]; [8]
  concentration at 15 min: 1130 ± 140 ng/mL
  Cmax: 1220 ± 140 ng/mL
  AUC(0-t): 1970 ± 240 ng·h/mL
  bioavailability: 11.5 ± 1.4%
  half-life: 43.3 ± 2 min
[1]; [9]
  Cmax: 1750 ± 160 ng/mL
  AUC(0-t): 2610 ± 240 ng·h/mL
  bioavailability: 15.2 ± 1.4%
  half-life: 37.2 ± 1.2 min
[1]; [10]
  Cmax: 1430 ± 180 ng/mL
  AUC(0-t): 3080 ± 380 ng·h/mL
  bioavailability: 17.9 ± 2.2%
  half-life: 52.9 ± 2.8 min
[1]; [11]
  Cmax: 1300 ± 130 ng/mL
  AUC(0-t): 2800 ± 200 ng·h/mL
  bioavailability: 16.3 ± 1.2%
  half-life: 54.7 ± 4.5 min
[1]; [12]
  Cmax: 1020 ± 70 ng/mL
  AUC(0-t): 2310 ± 160 ng·h/mL
  bioavailability: 13.4 ± 1%
P-gp
  difference in mean etoposide Papp: no difference
[2]; [13]
  Etoposide AUC0–6h: 947 ± 156 ng·h/mL
  Etoposide Cmax: 390 ± 84 ng/mL
  Etoposide bioavailability: 5.51 ± 0.91%
  Etoposide tmax, median [Q1; Q3]: 15 [15;30] min
  Etoposide t½: 80.8 ± 13.2 min
[2]; [14]
  Etoposide AUC0–6h: 2470 ± 440 ng·h/mL
  Etoposide Cmax: 1590 ± 290 ng/mL
  Etoposide bioavailability: 14.4 ± 2.5%
  Etoposide tmax, median [Q1; Q3]: 45 [15;45] min
  Etoposide t½: 39.3 ± 3.0 min
[2]; [15]
  Etoposide AUC0–6h: 3860 ± 500 ng·h/mL
  Etoposide Cmax: 2240 ± 540 ng/mL
  Etoposide bioavailability: 22.4 ± 2.9%
  Etoposide tmax, median [Q1; Q3]: 38 [26;60] min
  Etoposide t½: 51.4 ± 2.4 min
[2]; [16]
  Etoposide AUC0–6h: 4270 ± 470 ng·h/mL
  Etoposide Cmax: 2110 ± 200 ng/mL
  Etoposide bioavailability: 24.8 ± 2.7%
  Etoposide tmax, median [Q1; Q3]: 45 [15;60] min
  Etoposide t½: 56.5 ± 4.8 min
